Like-named read-outs stand apart in the source and are kept apart here.
What was measured:
Male Wistar rats [1] = assay: Subchronic treatment in rats: food intake, body weight, body composition (EchoMRI); format: in vivo, rat; settings: vs vehicle, n = 6/group; for Food intake: measured twice a week, cage means; for Body weight: monitored weekly
Description: All experiments were in accordance with internationally accepted principles for the care and use of laboratory animals and in compliance with an animal experiment license (2013/15–2934-00833) issued (to JH) by the Danish Committee for Animal Research. Male Wistar rats (Taconic, Denmark) weighing ~200 g at the time of arrival were housed two in each cage at the Panum Institute, Copenhagen, Denmark. They were kept in temperature- (21°C) and humidity-controlled (55%) rooms with light/dark cycles of 12 h with free access to standard rat chow and water.
(§1) After 1 week of acclimatization, animals were allocated into five groups (n = 6/each group). Rats received either vehicle, rat GIP(3-30)NH2, (25 nmol/kg b.w.), human (Pro3)GIP (25 nmol/kg b.w.), human GLP-2(3-33) (25 nmol/kg b.w.), or human GLP-2(11-33) (25 nmol/kg b.w.) sc daily at 6 PM for 3 weeks. […] To study bone resorption, blood was collected from the sublingual vein of rats at −2, −1, 0, 6, 10, 14, 17, 21 days of treatment. The day after the last injection, the rats were euthanized and blood was collected from the vena cava for further biochemical analysis. The liver was excised and samples were snap-frozen in liquid nitrogen and stored at −80°C until assayed.
Food intake was measured twice a week during the study period at 10 AM by subtracting the leftover weights from the initial weights and calculated as cage means (g/rat). Body weight was monitored weekly at 10 AM. Measures of body lean and fat mass were determined in live, conscious animals using quantitative magnetic resonance spectroscopy (EchoMRI-700TM; Echo MRI).

Male Wistar rats [2] = assay: Plasma lipoprotein lipase (LPL) ELISA after subchronic treatment; format: in vivo, rat; settings: 25 nmol/kg b.w. sc once daily for 3 weeks, vs vehicle, n = 6/group
Excerpt: as §1, with “assayed. […]” for “assayed.”
Bone resorption was assessed by measurements of degradation product from C-terminal cross linked telopeptides of type 1 collagen (CTX, RatLaps; IDS Immunodiagnostic Systems GmbH, Frankfurt am Main, Germany). CTX values were expressed as percent of the mean of the baseline values (days−2,−1, 0) of the individual animal. […] Resistin was measured using rat resistin enzyme immunoassay kit (Bertinpharma, Montigny le Bretonneux, France). […] Leptin was measured using rat leptin enzyme immunoassay kit (Mediagnost, Reutlingen, Germany). […] Adiponectin was measured using rat adiponectin ELISA kit (Millipore, St. Charles, Missouri, USA). […] LPL was measured using lipoprotein lipase ELISA kit (Cell Biolabs, San Diego, CA, USA). […]

Male Wistar rats [3] = assay: Bone resorption: serum CTX (RatLaps) during subchronic treatment; format: in vivo, rat; settings: 25 nmol/kg b.w. sc once daily for 3 weeks, days 0-21, percent of individual baseline, vs vehicle, n = 6/group
Excerpt: as §1
(§2) To obtain serum, blood samples were allowed to clot for 30 min and were then centrifuged (10 min at 3,000 × g) and stored at −20°C until analysis. To obtain plasma, blood was collected into chilled tubes containing in final concentrations EDTA 3.9 mmol/l and valine-pyrolidide 0.01 mmol/l (a DPP-4 inhibitor, a gift from Novo Nordisk A/S, Bagsvaerd, Denmark). The samples were centrifuged (10 min at 3,000 × g, 4°C) and plasma was kept at −80°C until analysis.
(§3) Bone resorption was assessed by measurements of degradation product from C-terminal cross linked telopeptides of type 1 collagen (CTX, RatLaps; IDS Immunodiagnostic Systems GmbH, Frankfurt am Main, Germany). CTX values were expressed as percent of the mean of the baseline values (days−2,−1, 0) of the individual animal. The intra- and interassay coefficient of variation (CV's) of the assay is in the range 6–10 and 10–15%, respectively. Resistin was measured using rat resistin enzyme immunoassay kit (Bertinpharma, Montigny le Bretonneux, France). The intra-assay CV is <5%, the inter-assay <10%. Leptin was measured using rat leptin enzyme immunoassay kit (Mediagnost, Reutlingen, Germany). The intra- and inter-assay CV are <5%. Adiponectin was measured using rat adiponectin ELISA kit (Millipore, St. Charles, Missouri, USA). The intra- and inter-assay CV are <2 and <9%, respectively. LPL was measured using lipoprotein lipase ELISA kit (Cell Biolabs, San Diego, CA, USA). The intra- and inter-assay CV are <4 and <8%, respectively. All samples were analyzed in duplicates in the same assay to prevent inter assay variation.

Male Wistar rats [4] = assay: Plasma adipokines (leptin, resistin, adiponectin) after subchronic treatment; format: in vivo, rat; settings: 25 nmol/kg b.w. sc once daily for 3 weeks, vs vehicle, n = 6/group
Excerpt: as §1, §2, §3

[5] = Pharmacokinetic study of GIP(3-30)NH2, plasma radioimmunoassay; format: in vivo, rat
Description: Samples were taken at 0, 5, 10, 20, 30, and 45 min post-injection of GIP(3-30)NH2. Blood was immediately aliquoted into tubes containing final concentrations of EDTA 3.9 mmol/l. Samples were centrifuged (3,000 × g for 10 min at 4°C) and the plasma stored at −80°C until analysis. GIP(3-30)NH2 concentrations were measured in plasma with an in-house-developed radioimmunoassay ([50]) using a polyclonal antibody (code no. 95236) raised in rabbits against porcine GIP(1-30)NH2. As standard we used rat GIP(3-30)NH2 and the tracer was ^125I-labeled human GIP(3-30NH2).

Male Wistar rats [6] = assay: Plasma and intrahepatic triglycerides after subchronic treatment; format: in vivo, rat; settings: 25 nmol/kg b.w. sc once daily for 3 weeks, vs vehicle, n = 6/group; for Intrahepatic triglyceride content: liver lipid extract; for Plasma triglyceride levels: terminal blood
Excerpt: as §1, §2
Total liver lipids were extracted as previously described ([31]). The extracts were evaporated under vacuum in a rotary evaporator and re-suspended in 1 ml of isopropanol for quantification of triglycerides. Plasma and intrahepatic triglycerides were assessed using triglyceride determination kit (Sigma-Aldrich, Saint Louis, USA). All samples were analyzed in duplicates in the same assay to prevent inter assay variation.

rat GIPR = settings: acts as a partial agonist at the rat GIPR, elsewhere ref 22, 25; cited from earlier work
[7] = cited from earlier work
Excerpt: Glucose-dependent insulinotropic peptide (GIP) and glucagon-like peptide-2 (GLP-2) are peptide hormones released from K and L cells of the gastrointestinal tract, respectively ([1], [2]). Both exert their functions through activation of specific G protein-coupled receptors ([3], [4]). The GIP receptor (GIPR) is expressed on different cell type including pancreatic cells, adipocytes ([5]), osteoblasts ([6]), and osteoclasts ([7]). The GLP-2 receptor (GLP-2R) is widely expressed in gastrointestinal tract and central nervous system ([8]–[10]) but fewer are found in the liver, vagal afferents, and ...

[8] = 25 nmol/kg b.w. sc once daily for 3 weeks

CC[C@H](C)[C@H](NC(=O)[C@H](CO)NC(=O)[C@H](Cc1ccc(O)cc1)NC(=O)[C@H](CC(=O)O)NC(=O)[C@H](CO)NC(=O)[C@@H](NC(=O)[C@H](Cc1ccccc1)NC(=O)[C@@H](NC(=O)CNC(=O)[C@@H](N)CCC(=O)O)[C@@H](C)O)[C@@H](C)CC)C(=O)N[C@@H](C)C(=O)N[C@@H](CCSC)C(=O)N[C@@H](CC(=O)O)C(=O)N[C@@H](CCCCN)C(=O)N[C@H](C(=O)N[C@@H](CCCNC(=N)N)C(=O)N[C@@H](CCC(N)=O)C(=O)N[C@@H](CCC(N)=O)C(=O)N[C@@H](CC(=O)O)C(=O)N[C@@H](Cc1ccccc1)C(=O)N[C@H](C(=O)N[C@@H](CC(N)=O)C(=O)N[C@@H](Cc1c[nH]c2ccccc12)C(=O)N[C@@H](CC(C)C)C(=O)N[C@@H](CC(C)C)C(=O)N[C@@H](C)C(=O)N[C@@H](CCC(N)=O)C(=O)N[C@@H](CCCCN)C(N)=O)C(C)C)[C@@H](C)CC [GIP(3-30)NH2]
Lean mass (Male Wistar rats [1]; 25 nmol/kg b.w. sc once daily for 3 weeks, NMR spectroscopy (EchoMRI)): no difference
Body fat mass (Male Wistar rats [1]; 25 nmol/kg b.w. sc once daily for 3 weeks, end of treatment, NMR spectroscopy (EchoMRI)): increased
Food intake (Male Wistar rats [1]; [8]): no measurable effect
Body weight gain, first 2 weeks of treatment (Male Wistar rats [1]; 25 nmol/kg b.w. sc once daily): did not show differences
Body weight gain, third week of treatment (Male Wistar rats [1]; 25 nmol/kg b.w. sc once daily, p < 0.05): significantly increased
Plasma lipoprotein lipase (LPL) levels (Male Wistar rats [2]): significantly enhanced
Serum CTX levels (bone resorption) (Male Wistar rats [3]): did not affect
Plasma adiponectin (Male Wistar rats [4]; ELISA): no significant effect
Plasma leptin (Male Wistar rats [4]; enzyme immunoassay): increased
Plasma resistin (Male Wistar rats [4]; enzyme immunoassay): no significant effect
Cmax ([5]; rat plasma, after administration, in-house radioimmunoassay, data not shown, read-out: Maximum plasma concentration): ~17 nM
Tmax ([5]; rat plasma, in-house radioimmunoassay, data not shown, read-out: Time of maximum plasma concentration after administration (converted)): 10 min
Half-life ([5]; rat plasma, in-house radioimmunoassay, read-out: Half-life after injection): ~20 min
Duration of exposure for the antagonist ([5]; rat, concluded from peak level and half-life): ≤ 2 h
Intrahepatic triglyceride content (Male Wistar rats [6]): failed to change
Plasma triglyceride levels (Male Wistar rats [6]): increased

(Pro3)GIP
Body composition (total fat and lean mass) (Male Wistar rats [1]; 25 nmol/kg b.w. sc once daily for 3 weeks, NMR (EchoMRI)): not associated with changes
Food intake (Male Wistar rats [1]; [8]): not associated with changes
Body weight (Male Wistar rats [1]; [8]): not associated with changes
Plasma lipoprotein lipase (LPL) levels (Male Wistar rats [2]): did not modify
Serum CTX levels (bone resorption) (Male Wistar rats [3]): did not affect
Ki (rat GIPR): 19 nM
Plasma levels of adipokines (Male Wistar rats [4]; leptin, resistin, adiponectin (Figure 2)): did not modify
Intrahepatic triglyceride content (Male Wistar rats [6]): did not modify
Plasma triglyceride levels (Male Wistar rats [6]): did not modify

GLP-2(3-33): Synthetic human GLP-2(3-33), GLP-2R antagonist, from Caslo laboratory (DGSFSDEMNTILDNLAARDFINWLIQTKITD; Glucagon-like peptide 2; UniProt P01275 148-178, looked up, fragment)
Food intake (Male Wistar rats [1]; [8]): did not modify
Body weight (Male Wistar rats [1]; [8]): did not modify
Serum CTX levels (bone resorption) (Male Wistar rats [3]): did not change

GLP-2(11-33): Synthetic human GLP-2(11-33), GLP-2R antagonist, from Caslo laboratory (NTILDNLAARDFINWLIQTKITD; Glucagon-like peptide 2; UniProt P01275 156-178, looked up, fragment)
Food intake (Male Wistar rats [1]; [8]): did not modify
Body weight (Male Wistar rats [1]; [8]): did not modify
Serum CTX levels (bone resorption) (Male Wistar rats [3]): did not change

Glucose-dependent insulinotropic peptide [GIP]
Half-life ([7]; humans, DPP-4 mediated degradation): about 7 min

glucagon-like peptide-2 [GLP-2]
Half-life ([7]; human, in vivo): about 7 min

Source: PMC6691063, “Increased Body Weight and Fat Mass After Subchronic GIP Receptor Antagonist, but Not GLP-2 Receptor Antagonist, Administration in Rats” (Frontiers in Endocrinology, 2019)
